In the series the test system is individuals with Parkinson's disease. Kind of series: High-dose NR safety study in PD (Example 5). Format: in vivo, human. As to conditions: oral NR 3000 mg daily, 4 weeks. As for the experimental part:
• To determine the safety of oral NR 3000 mg daily for a period of 4 weeks in individuals with Parkinson's disease (PD). Safety is defined as the absence of NR-associated moderate or severe adverse events (AE).
This is a single center, phase I double blinded, randomized, placebo controlled drug-safety study.
20 patients are included in this study: 10 receiving 3000 mg oral NR and 10 receiving placebo.
Each capsule of NR contains 250 mg of NR. Patients administer orally 6 capsules (1500 mg) two times daily (3000 mg daily total) for the duration of the study (4 weeks). Placebo capsules are administered similarly (6 capsules two times daily). The study medication is to be taken every day during the treatment period, including prior to study visits.
An adverse event (AE) can therefore be any unfavourable and unintended sign (including an abnormal laboratory finding), symptom, or disease temporally associated with the use of a investigational product, whether or not related to the investigational product. The term AE is used to include both serious and non-serious AEs. If an abnormal laboratory value/vital sign is associated with clinical signs and symptoms, the sign/symptom is reported as an AE and the associated laboratory result/vital sign is considered as additional information that must be collected. Only intensity 2 and 3 is registered as AE. […]

Regarding `NC(=O)c1ccc[n+]([C@@H]2O[C@H](CO)[C@@H](O)[C@H]2O)c1` [NR, nicotinamide riboside], the “adverse events reported throughout the study” value was “no serious adverse events or any adverse events of medical significance”.

The record behind these values is patent US20240366648A1, “NAD-AUGMENTATION THERAPY FOR PARKINSON'S DISEASE” (Vestlandets Innovasjonsselskap AS (VIS), priority 2021, published 2024).
